Assay results reported in US8192767B2, “Antioxidant compositions comprising extracts of myrtle and rosemary” (Nuraging Biotech S.R.L., priority 2006, dated 2012).

How the values were obtained:
[1] = DPPH (2,2-diphenyl-1-picryl-hydrazyl) spectrophotometric antioxidant test in ethanol, 517 nm; assay type: biochemical; conditions: DPPH 6.0×10^−6 M
Source text: The antioxidant activity of the combination which is the object of the present invention can be assayed in vitro using the DPPH (2,2-diphenyl-1-picryl-hydrazyl) spectrophotometric method. This method makes it possible to determine the antioxidant potential of a molecule to be assayed by measuring the variation of the absorbance of the radical DPPH in its presence at the wavelength of 517 nm (as reported in the literature) [Blois M. S., Antioxidant determination by the use of a stable free radical—Nature, 181:1199-1200; (1958)], according to the reaction: Z·+AH=ZH+A· [1] where: • Z· is the radical DPPH • AH is the single antioxidant (reducing) molecule present in the composition or in the extract • ZH is the reduced form of DPPH • A· is the free radical produced by oxidation of the antioxidant molecule.
The greater the reduction of the absorbance of the radical DPPH in solution, the greater will be the antioxidant potential of the molecule studied. The final results of the assay are expressed as EC50, i.e. as the concentration of antioxidant molecule at which there is a 50% reduction of the DPPH radical according to the following formula: % Inhibition=[A(T0)−A(Tn/A(T0)] • A(T0)=absorbance of the control sample at time 0 • A(Tn)=absorbance in the presence of the antioxidant sample at time n.
The antioxidant capacity of the combination according to the present invention was assayed in ethanol, using a DPPH concentration of 6.0×10^−6 M and final concentrations of each extract, previously solubilised in ethanol, ranging from 1 mcg/ml to 3 mg/ml. For the purposes of evaluating the synergistic effect the extracts were also assayed in a mixture in ratios ranging from 0.1:1 to 9.9:1. The myrtle and rosemary extracts were each subjected to the same extraction procedure, selected from among those indicated above, then brought to dryness and redissolved in ethanol at the desired concentrations so as to standardise the evaluation methodology. The absorbance was then determined at the wavelength of 517 nm in 1 cm quartz cells.

[2] = tested on: rat pheochromocytoma PC12 cell line; assay: ATPLite test: ATP production of PC12 cells after H2O2-induced toxicity; assay type: cell-based; conditions: H2O2 200 μM without addition of extracts
Source text: The test used was the ATPLite™ test (Perkin Elmer, Milan), an ATP monitoring system based on luciferase, which permits assessment of the cytostatic and proliferative effects of various biological compounds. [Cree I. A. and Andreotti P. E. Measurement of cytotoxicity by ATP-based luminescence assay in primary cell cultures and cell lines—Toxicology in Vitro, 11, 553-556; (1997); Guan S., Bao Y. M., Jiang B., An L. Protective effect of protocatechuic acid from Alpinia oxyphylla on hydrogen peroxide-induced oxidative PC12 cell death—Eur. J. Pharmacol. 24: 538; (2006)].
The rat pheochromocytoma PC12 cell line (European Collection of Cell Cultures—ECACC, Sigma Aldrich, Milan) was used to evaluate the potential protective effects of extracts of rosemary (the same extract as described above in example 1) and of myrtle (the same extract as described above in example 2) against the toxicity induced by hydrogen peroxide (H2O2). The cells were grown on 96-well plates treated with poly-D-lysine (Sigma Aldrich, Milan) in D-MEM culture medium added with fetal bovine serum (FBS), penicillin/streptomycin, gentamycin, L-glutamine (all Invitrogen, Milan). […] After 24 hours the activity of the extracts on ATP production was evaluated using a Victor 3 spectrophotometer (Perkin Elmer, Milan). […]

| Structure (SMILES) | decrease in the absorbance of DPPH ([1]; BHA 0.01 mg/ml in ethanol) [%] | decrease in the absorbance of DPPH ([1]; BHA 0.1 mg/ml in ethanol) [%] | decrease in the absorbance of DPPH ([1]; BHA 1 mg/ml in ethanol) [%] | ATP production vs vehicle [2] |
| --- | --- | --- | --- | --- |
| COc1ccc(O)c(C(C)(C)C)c1 [BHA, butylated hydroxyl anisol] | 96.63 | 95.41 | 92.18 |  |
| OO [H2O2, hydrogen peroxide] |  |  |  | −80%±4.1 |
